Measurements from patent EP0813872A1, “Berberine derivates for inhibiting hsp27 production” (Kureha Chemical Industry Co., Ltd., priority 1996, dated 1997).
Counter-ions that a name gives are not always drawn.

System: HSP27
Assay: Inhibition of HSP27 production in heat-shocked human cancer cell lines (Western blotting)
Format: cell-based
Conditions: Western blot, 20 µM, control showed a single band
Description: The following various human cancer cell lines were cultured under 5% CO2, at 37 °C, except for the heat shock treatment period. The lung cancer cell line H69 (ATCC HTB 119), the gastric cancer cell line KATO III (ATCC HTB 103), the colon cancer cell line COLO 205 (ATCC CCL 222), and the prostate cancer cell line DU145 (ATCC HTB 81) were cultured in an RPMI1640 medium containing 10% inactivated fetal bovine serum (hereinafter referred to as FBS).
The uterine cancer cell line HeLa S3 (ATCC CCL 2.2) was cultured in an MEM medium containing 10% inactivated FBS.
The neuroblastoma cell line SK-N-MC (ATCC HTB 10) was cultured in an MEM medium containing non-essential amino acids (L-alanine = 8.9 mg/l, L-asparagine·H2O = 15.0 mg/l, L-aspartic acid = 13.3 mg/l, L-glutamic acid = 14.7 mg/l, glycine = 7.5 mg/l, L-proline = 11.5 mg/l and L-serine = 10.5 mg/l) and 10% inactivated FBS.
The berberine hydrochloride of the formula (III) (the final concentration = 20 µM: Matsuura Yakugyo) was added to each medium of the above human cancer cell lines 2 days after the inoculation. After the berberine hydrochloride treatment for 24 hours, a heat shock was applied at 45 °C for 15 minutes, and the cells were then cultured at 37 °C overnight. The control tests were carried out by performing the above procedures except that the berberine hydrochloride was not added.
The cells treated in the above (2) were homogenized, and the amounts of HSP27 produced were measured by the Western blotting method.
The cells treated in the above (2) were washed with phosphate buffered physiological saline [composition: KC1 = 0.2 g/l, KH2PO4 = 0.2 g/l, NaCl = 8 g/1, Na2HPO4 (anhydrous) = 1.15 g/l: hereinafter referred to as PBS(-): COSMO BIO CO. Catalogue No. 320-01], and 1 ml of lysis buffer [1.0% NP-40, 0.15 M sodium chloride, 50 mM Tris-HCl (pH 8.0), 5 mM-EDTA, 2 mM-N-ethylmaleimide, 2 mM phenylmethylsulfonyl fluoride, 2 µg/ml leupeptin, and 2 µg/ml pepstatin] was added. The whole was allowed to stand for 20 minutes on ice, and then centrifuged at 4 °C and 12000 rpm for 20 minutes. The resulting supernatant (10 µl) was added to 790 µl of PBS(-), and then 200 µl of a protein assay dye reagent solution (Dye Reagent Concentrate: Bio-Rad Laboratories, Catalogue No. 500-0006) was added. The whole was allowed to stand at room temperature for 5 minutes, and the absorbance at 595 nm was measured to determine the amounts of proteins.
For the SDS-polyacrylamide gel electrophoresis (SDS-PAGE) of the samples, the protein concentration of which were measured, aliquots containing the same amount of protein were loaded onto the gel. The SDS-PAGE was performed according to the Laemmli method (Laemmli, […]). After the electrophoresis, the blotting and then blocking were carried out. More particularly, the gel was brought into contact with a 0.45 µm nitrocellulose membrane (Schleicher & Schuell, Catalogue No. 401196) at room temperature and 100 V, using a protein-transferring apparatus (Trans-Blot Electrophoretic Transfer Cell: Bio-Rad), and blotting was carried out for 3 hours. The blotting buffer used was prepared by adding methyl alcohol to Tris-glycine buffer (pH 8.5) consisting of 0.025 M Tris and 0.192 M glycine (Tris Gly Running and Blotting Buffer; Enprotech, Mass., USA; Catalogue No. SA100034), so that the concentration of methyl alcohol became 20%. After blotting, the nitrocellulose membrane was incubated in a 10% skimmed milk-PBS(-) solution at room temperature for 30 minutes, to block non-specific bindings.
After blocking, the first antibody reaction was carried out on the nitrocellulose membrane, using a screener blotter (Sanplatec), and the anti-human-HSP27 mouse monoclonal antibody (StressGen, Victoria, B.C., Canada, Catalogue No. SPA-800). […]

## COc1ccc2cc3[n+](cc2c1OC)CCc1cc2c(cc1-3)OCO2 [berberine hydrochloride]
Colon cancer cell line COLO 205
  band of the molecular weight of approximately 27 kDa: faint in comparison with the control tests
Gastric cancer cell line KATO III
  band of the molecular weight of approximately 27 kDa: faint in comparison with the control tests
Lung cancer cell line H69
  band of the molecular weight of approximately 27 kDa: no band of the molecular weight of approximately 27 kDa was detected
Neuroblastoma cell line SK-N-MC
  band of the molecular weight of approximately 27 kDa: no band of the molecular weight of approximately 27 kDa was detected
Prostate cancer cell line DU145
  band of the molecular weight of approximately 27 kDa: no band of the molecular weight of approximately 27 kDa was detected
Uterine cancer cell line HeLa S3
  band of the molecular weight of approximately 27 kDa: no band of the molecular weight of approximately 27 kDa was detected
